In brackets after ≈: the same amount, converted by molar mass.
Assays:
Assay type in all cases: cell-based
MOLT4 cells [1] = test: In situ click reaction with AlexaFluor488-azide, flow cytometry, MOLT4
Experimental: (§1) In situ “click” reactions were performed using cells harvested after 2 days of treatment with DMSO, 3-Eth-5-NIdR (10, 40, or 100 μg mL^−1), 5-NIdR (100 μg mL^−1) or 5-ethynyl-2′-deoxyuridine (EdU) (10 μM). All cells were fixed with cold methanol. Under minimal lighting, cells were treated with 0.3 mL of saponin-based permeabilization and wash buffer for 45 min at 37° C. Click reactions were initiated by adding the click-iT reaction cocktail according to the instructions of the manufacturer (Invitrogen) followed by incubation at 37° C. for 90 min. Cells were then washed two times with saponin-based permeabilization and wash buffer. Cell pellets were dislodged using 0.5 mL solution of 10 μg mL^−1 PI and RNAase A in saponin-based permeabilization and wash buffer and then incubated for at least 15 min prior to flow cytometry analysis.
MOLT4 cells were treated with DMSO, EdU (a “clickable” thymidine analogue), 5-NIdR, and 3-Eth-5-NIdR for 2 days and then washed with PBS to remove any nucleoside and/or nucleotide not incorporated into DNA. After fixation and permeabilization, the cells were treated with AlexaFluor488-azide and Cu(I) catalyst to commence “clicking” of any incorporated nonnatural nucleotide. Dual parameter flow cytometry applying PI staining coupled with detection of the AlexaFluor488 fluorophore was used to detect the “clicked” non-natural nucleotide in cellular DNA. […] This high amount of “clicked” DNA reflects transport of EdU into the cell, conversion to the corresponding nucleoside triphosphate, and incorporation into the DNA of replicating cells. MOLT4 cells treated with 10 μg mL^−1 3-Eth-5-NIdR also show appreciable levels of AlexaFluor488 stained DNA (2.8%) after 2 days of treatment. Furthermore, the amount of “clicked” DNA is dosedependent as treatment with 40 μg mL^−1 Eth-5-NIdR yields a […] increase in AlexaFluor488 staining (6.5%). Identical experiments were performed using the Loucy cell line that lacks TdT and thus is less sensitive to the cytotoxic effects of the non-natural nucleoside (vide inf ra). […] Treatment with 40 μg mL^−1 of 3-Eth-5-NIdR produces low levels of “clicked” DNA (0.02%). […] Once incorporated into DNA, the non-natural nucleotide inhibits cellular DNA replication and induces apoptosis. Finally, it should be emphasized that low levels (<0.5%) of AlexaFluor488 staining are detected in cells treated with 100 μg mL^−1 5-NIdR.

CEM-C7 cells = test: Cell proliferation assay (trypan blue), CEM-C7; conditions: CEM-C7, up to 72 h
Experimental: (§2) Cells were seeded at a population density of ˜200,000 cells mL-1 and treated with variable concentrations of non-natural nucleoside (0.1-100 μg mL-1) for up to 72 h. The final DMSO concentration in all experiments was 0.1%. Cell viability was assessed via trypan blue staining and counting the number of viable (clear) versus non-viable (blue) cells under a microscopy using a hemocytometer. The IC50 values for both nonnatural nucleosides were obtained using a nonlinear regression curve fit of the data to eq 3. LD50 values for the non-natural nucleosides were calculated using identical approaches.
(§3) Identical cell-based experiments were performed with the other ALL cell lines, and the corresponding IC50 and LD50 values for 5-NIdR and 3-Eth-5-NIdR against each cell line are summarized in Table 2. […] The increased potency of 3-Eth-5-NIdR likely reflects the higher catalytic efficiency for the corresponding nucleoside triphosphate to act as a chain-terminating substrate for TdT. […] In general, there is an excellent correlation (R^2=0.695, p<0.0001) between the anti-cancer effects of the non-natural nucleoside with TdT level. Similar analyses were performed by plotting the LD50 values of 3-Eth-5-NIdR as a function of TdT content (FIG. 3E).

Jurkat cells = test: Cell proliferation assay (trypan blue), Jurkat; conditions: up to 72 h
Experimental: as §2, §3

Loucy cells [2] = test: In situ click reaction with AlexaFluor488-azide, flow cytometry, Loucy; conditions: 40 μg mL^−1, 2 days
Experimental: as §1
MOLT4 cells were treated with DMSO, EdU (a “clickable” thymidine analogue), 5-NIdR, and 3-Eth-5-NIdR for 2 days and then washed with PBS to remove any nucleoside and/or nucleotide not incorporated into DNA. After fixation and permeabilization, the cells were treated with AlexaFluor488-azide and Cu(I) catalyst to commence “clicking” of any incorporated nonnatural nucleotide. […] Finally, it should be emphasized that low levels (<0.5%) of AlexaFluor488 staining are detected in cells treated with 100 μg mL^−1 5-NIdR.

RS4(11) cells = test: Cell proliferation assay (trypan blue), RS4(11); conditions: up to 72 h
Experimental: as §2, §3

Loucy cells [3] = test: Cell proliferation assay (trypan blue), Loucy
Experimental: as §2

J45.01 cells = test: Cell proliferation assay (trypan blue), J45.01; conditions: J45.01, up to 72 h
Experimental: as §2, §3

MOLT4 cells [4] = test: Cell proliferation assay (trypan blue, viable vs non-viable cells), MOLT4; conditions: for IC50 / LD50: MOLT4, up to 72 h
Experimental: as §2
This hypothesis was tested by measuring the cytostatic and/or cytotoxic effects of the corresponding nucleoside, 3-Eth-5-NIdR, and 5-nitroindolyl-2′-deoxynucleoside (5-NIdR) against various ALL cell lines including MOLT4, CEM-C7, Jurkat, RS4(11), JS45.01, and Loucy. Western blot analyses was first performed to determine TdT levels in each ALL cell line. […] We next tested the efficacy of 5-NIdR and 3-Eth-5-NIdR by treating exponentially growing cells with variable concentrations (0.1-100 μg mL^−1) of each non-natural nucleoside for time periods of up to 3 days.

MOLT4 cells [5] = test: Apoptosis measurement (Annexin V-Alexa Fluor 488 / propidium iodide flow cytometry)
Experimental: Cells were treated with DMSO (vehicle), 5-NIdR (100 μg mL-1), and 3-Eth-5-NIdR (10 and 40 μg mL-1) as described above. Cells were harvested by centrifugation and washed in phosphate-buffered saline and resuspended in 100 μL of binding buffer containing AnnexinV-Alexa Fluor 488 conjugate. Cells were treated with propidium iodide (PI) and incubated at RT for 15 min followed by flow cytometry analysis. This enables live cells (unstained with either Alexa Fluor 488 or PI) to be discriminated from early apoptotic (stained with Alexa Fluor 488), late apoptotic cells (stained with Alexa Fluor 488 and PI), and necrotic cells (stained with PI).
The mechanism by which these non-natural nucleosides induce cell death was interrogated using dual parameter FACS analyses measuring propidium iodide uptake and Alexa Fluor488 annexin V conjugate staining. This allows live cells (unstained with either fluorophore) to be distinguished from cells that are early apoptotic (annexin V staining only), late apoptotic (propidium iodide and annexin V staining), and necrotic (propidium iodide staining only). […] In this case, treatment with 100 μg mL^−1 5-NIdR causes a 5-fold increase in early and late stage apoptosis, respectively. […] The induction of apoptosis was also independently confirmed by using agarose gel electrophoresis to observe DNA cleavage sites between nucleosomes that occur in chromatin at ˜200-base pair intervals.

[6] = Loucy (TdT-negative), up to 72 h
[7] = MOLT4, 40 μg mL^−1, compared to DMSO

SMILES: C#Cc1cn([C@H]2C[C@H](O)[C@@H](CO)O2)c2ccc([N+](=O)[O-])cc12 [3-Eth-5-NIdR, 3-ethynyl-5-nitroindolyl-2′-deoxynucleoside]
- AlexaFluor488 stained (clicked) DNA (MOLT4 cells [1]; MOLT4, 10 μg mL^−1, 2 days): 2.8%
- AlexaFluor488 staining (clicked DNA) (MOLT4 cells [1]; MOLT4, 40 μg mL^−1, 2 days): 6.5%
- increase in AlexaFluor488 staining (MOLT4 cells [1]; MOLT4, 40 vs 10 μg mL^−1): 2.5 fold
- IC50 (CEM-C7 cells): 23 ± 2 µg/mL (≈ 76.1 µM)
- LD50 (CEM-C7 cells): ~100 µg/mL
- IC50 (Jurkat cells): 49 ± 1 µg/mL (≈ 162 µM)
- LD50 (Jurkat cells): ~100 µg/mL
- clicked DNA (AlexaFluor488 staining) (Loucy cells [2]): 0.02%
- IC50 (RS4(11) cells): 23 ± 2 µg/mL (≈ 76.1 µM)
- LD50 (RS4(11) cells): 57 ± 2 µg/mL
- IC50 (Loucy cells [3]; [6]): 62 ± 5 µg/mL (≈ 205 µM)
- LD50 (Loucy cells [3]; [6]): 63 ± 3 µg/mL
- cytostatic or cytotoxic effects (Loucy cells [3]; Loucy, 40 μg mL^−1): significant cytostatic or cytotoxic effects are not observed
- IC50 (J45.01 cells): 34 ± 6 µg/mL (≈ 112 µM)
- LD50 (J45.01 cells): 71 ± 6 µg/mL
- cytostatic and cytotoxic effects (MOLT4 cells [4]; MOLT4, 10 μg mL^−1): cytostatic and cytotoxic effects are observed
- IC50 (MOLT4 cells [4]): 14.1 ± 2.4 µg/mL (≈ 46.6 µM)
- LD50 (MOLT4 cells [4]): 27.7 ± 1.7 µg/mL
- IC50 (MOLT4 cells [4]; listed as 3-Eth-5-NIdr): 14 ± 2 µg/mL (≈ 46.3 µM)
- LD50 (MOLT4 cells [4]; listed as 3-Eth-5-NIdr): 28 ± 4 µg/mL
- PI uptake (necrotic cell death) (MOLT4 cells [5]; MOLT4): no significant PI uptake
- Early apoptoic cells (%) (MOLT4 cells [5]; MOLT4, 10 μg mL^−1): 10.5 ± 1.5%
- Late apoptoic cells (%) (MOLT4 cells [5]; MOLT4, 10 μg mL^−1): 5.4 ± 1.0%
- Necrotic cells (%) (MOLT4 cells [5]; MOLT4, 10 μg mL^−1): 0.7 ± 0.2%
- Viable cells (%) (MOLT4 cells [5]; MOLT4, 10 μg mL^−1): 83.4 ± 2.7%
- level of apoptosis compared with 100 μg mL^−1 5-NIdR (MOLT4 cells [5]; MOLT4, 10 μg mL^−1): equivalent levels of apoptosis
- Early apoptoic cells (%) (MOLT4 cells [5]; MOLT4, 40 μg mL^−1): 68.8 ± 0.9%
- Late apoptoic cells (%) (MOLT4 cells [5]; MOLT4, 40 μg mL^−1): 23.7 ± 4.9%
- Necrotic cells (%) (MOLT4 cells [5]; MOLT4, 40 μg mL^−1): 1.2 ± 0.2%
- Viable cells (%) (MOLT4 cells [5]; MOLT4, 40 μg mL^−1): 6.3 ± 3.7%
- increase in early stage apoptosis (MOLT4 cells [5]; [7]): 13 fold
- increase in late stage apoptosis (MOLT4 cells [5]; [7]): 7 fold

Reference: patent US9988680B2, “Non-natural nucleosides as theranostic agents” (Case Western Reserve University, priority 2011, dated 2018)
